According to patent US20230321135A1, “TARGETING OF LACTATE DEHYDROGENASE C, METHODS OF PREPARING SAME, AND METHODS OF USING SAME IN COMBINATION WITH ANTI-CANCER TREATMENTS” (QATAR FOUNDATION FOR EDUCATION, SCIENCE AND COMMUNITY …, priority 2020, published 2023):

Assays:
[1] = system: LDHC; settings: cited from earlier work
[2] = system: HCC-1500 cells; assay: Sensitivity to olaparib or cisplatin (72 h treatment; Annexin V/PI, clonogenic assay); format: cell-based; settings: 14 days of culture post-treatment (72 h)
[3] = system: shLDHC breast cancer cells (MDA-MB-468, BT-549, HCC-1500); assay: Annexin V/PI apoptosis after 72 hrs of treatment with olaparib or cisplatin; format: cell-based
Excerpt: (§1) FIG. 6A: Annexin V/PI flow cytometric quantification of apoptosis after 72 hrs of treatment with olaparib or cisplatin. FIG. 6B depicts a western blot of cleaved caspase 3 protein expression with β-actin as loading control. Numbers under each lane represent mean densitometry values (arbitrary units) for cleaved caspase 3 signal (high exposure blot) from three independent experiments normalized to β-actin. FIG. 6C: Representative immunofluorescence microscopy images of phospho-γ-H2AX (red) and DAPI-stained nuclei (100× magnification). Yellow arrows indicate early apoptotic cells and white arrows indicate late apoptotic cells. […] All statistical analysis comparing shCTRL vs shLDHC performed using Student's t-test.
Supplemental FIG. 5A depicts a representative Annexin V/PI flow cytometry plots of MDA-MB-468 cells after 72 hrs of treatment with olaparib or cisplatin. Supplemental FIG. 5B depicts Annexin V/PI flow cytometric quantification of BT-549 cells after 72 hrs of treatment with olaparib or cisplatin. Supplemental FIG. 5C: Annexin V/PI flow cytometric quantification of HCC-1500 cells after 72 hrs of treatment with olaparib or cisplatin. […] Statistical analysis comparing shCTRL vs shLDHC performed using Student's t-test. […]

[4] = system: MDA-MB-468 cells; assay: Western blot of cleaved caspase 3 after olaparib or cisplatin treatment; format: cell-based; settings: MDA-MB-468, after treatment
Excerpt: as §1
(§2) DNA damage repair inhibitors and DNA damage inducing agents, including the Poly ADP-ribose polymerase (PARP)-inhibitor olaparib and cisplatin, are widely used anti-cancer drugs with particular benefit to patients with defects in DDR pathways such as BRCA1/2-positive or ‘BRCAness’ basal breast cancer patients.

[5] = system: MDA-MB-468 cells; assay: Phospho-γ-H2AX immunofluorescence after olaparib or cisplatin treatment; format: cell-based; settings: similar levels in shCTRL and shLDHC treated cells
Excerpt: as §1, §2

[6] = system: shLDHC breast cancer cells (MDA-MB-468, BT-549, MDA-MB-231, HCC-1500); assay: Clonogenic assay at 14 days of culture post-treatment (72 h) with olaparib or cisplatin; format: cell-based; settings: cell-line dependent

SMILES	affinity for LDHC [1]	selectivity towards LDHC ([1]; vs other lactate dehydrogenase enzymes (LDHA, LDHB))	clonogenic ability of shCTRL and shLDHC cells [2]	apoptosis in giant shLDHC cells compared to shCTRL cells [3]	expression of cleaved caspase 3 in shLDHC cells [4]	DNA damage after treatment [5]	colony formation ability of shLDHC cells further compromised, compared to shCTRL treated cells [6]
CCNC(=O)C(=O)O [N-Ethyl oxamate]	high affinity	–	–	–	–	–	–
CCCNC(=O)C(=O)O [N-propyl oxamate]	–	high degree of selectivity	–	–	–	–	–
N.N.[Cl][Pt][Cl] [cisplatin]	–	–	completely abolished	further induced	augmented	significant increase	greater than 4 fold
O=C(c1cc(Cc2n[nH]c(=O)c3ccccc23)ccc1F)N1CCN(C(=O)C2CC2)CC1 [olaparib]	–	–	–	further induced	augmented	significant increase	about 2 fold
